For 7 molecules, pest or weed control results are on record in patent US8530388B2, “Cyclopentadione derived herbicides” (Syngenta Limited, priority 2009, dated 2013).

Holding throughout (type): in vivo
In assay [1] the test system is Alopecurus myosuroides (ALOMY). Description: Post-emergence herbicidal activity, glasshouse pot test. Particulars: 312 h, rate 250 g/ha, evaluated after 13 days, read-out: Post-emergence activity, ALOMY (100=total damage to plant; 0=no damage to plant). Here is the method:
(§1) Seeds of a variety of test species were sown in standard soil in pots. After cultivation for one day (pre-emergence) or after 8 days cultivation (post-emergence) under controlled conditions in a glasshouse (at 24/16° C., day/night; 14 hours light; 65% humidity), the plants were sprayed with an aqueous spray solution derived from the formulation of the technical active ingredient in acetone/water (50:50) solution containing 0.5% Tween 20 (polyoxyethelyene sorbitan monolaurate, CAS RN 9005-64-5). The test plants were then grown in a glasshouse under controlled conditions in a glasshouse (at 24/16° C., day/night; 14 hours light; 65% humidity) and watered twice daily. After 13 days for pre and post-emergence, the test was evaluated (100=total damage to plant; 0=no damage to plant).
(§2) Test plants: Setaria faberi (SETFA), Lolium perenne (LOLPE), Alopecurus myosuroides (ALOMY), Echinochloa crus-galli (ECHCG), and Avena fatua (AVEFA)

Assay [2] concerns Avena fatua (AVEFA). The assay is described as above. The conditions noted are these: 312 h, rate 250 g/ha, evaluated after 13 days, read-out: Post-emergence activity, AVEFA (100=total damage to plant; 0=no damage to plant). Here is the method: as §1, §2
In assay [3] the test system is Echinochloa crus-galli (ECHCG). Described as above. Particulars: 312 h, rate 250 g/ha, evaluated after 13 days, read-out: Post-emergence activity, ECHCG (100=total damage to plant; 0=no damage to plant). As for the experimental part:
as §1, §2

Assay [4] has as its system Lolium perenne (LOLPE). The description is as above. Particulars: 312 h, rate 250 g/ha, evaluated after 13 days, read-out: Post-emergence activity, LOLPE (100=total damage to plant; 0=no damage to plant). As for the experimental part: as §1, §2
Assay [5] concerns Alopecurus myosuroides (ALOMY). The experiment in a line: Pre-emergence herbicidal activity, glasshouse pot test. Particulars: 312 h, Rate 250 g/ha, sprayed one day after sowing, evaluated after 13 days, 100=total damage to plant, 0=no damage to plant. As for the experimental part:
as §1, with “plant). Test plants: Setaria faberi (SETFA), Lolium perenne (LOLPE), Alopecurus myosuroides (ALOMY), Echinochloa crus-galli (ECHCG), and Avena fatua (AVEFA) Pre-Emergence Activity” for “plant).”

The test system of assay [6] is Avena fatua (AVEFA). The assay is described as above. The conditions noted are these: 312 h, Rate 250 g/ha, sprayed one day after sowing, evaluated after 13 days, 100=total damage to plant, 0=no damage to plant. Here is the method: as §1, with “plant). Test plants: Setaria faberi (SETFA), Lolium perenne (LOLPE), Alopecurus myosuroides (ALOMY), Echinochloa crus-galli (ECHCG), and Avena fatua (AVEFA) Pre-Emergence Activity” for “plant).”

Assay [7] has as its system Echinochloa crus-galli (ECHCG). Described as above. The conditions noted are these: 312 h, Rate 250 g/ha, sprayed one day after sowing, evaluated after 13 days, 100=total damage to plant, 0=no damage to plant. Here is the method: as §1, with “plant). Test plants: Setaria faberi (SETFA), Lolium perenne (LOLPE), Alopecurus myosuroides (ALOMY), Echinochloa crus-galli (ECHCG), and Avena fatua (AVEFA) Pre-Emergence Activity” for “plant).”

For assay [8], the system named is Lolium perenne (LOLPE). Described as above. The conditions noted are these: 312 h, Rate 250 g/ha, sprayed one day after sowing, evaluated after 13 days, 100=total damage to plant, 0=no damage to plant. Here is the method:
as §1, with “plant). Test plants: Setaria faberi (SETFA), Lolium perenne (LOLPE), Alopecurus myosuroides (ALOMY), Echinochloa crus-galli (ECHCG), and Avena fatua (AVEFA) Pre-Emergence Activity” for “plant).”

Consider `CCc1ccc(-c2ccc(Cl)c(F)c2F)cc1C1=C(O)CCC1=O` [Compound T-12], for which the pest or weed control at 250 g/ha in assay [1] stood at 50%; with Avena fatua (AVEFA) [2] it was 50%; in assay [3], 90%; in the assay on Lolium perenne (LOLPE) [4] it was 50%; in assay [5], 40%; in the assay with Avena fatua (AVEFA) [6], 30%. In addition, the pest or weed control at 250 g/ha (in assay [7]; in the assay with Lolium perenne (LOLPE) [8]) was 50% throughout.
As for `CCc1ccc(-c2ccc(Cl)c(C)c2)cc1C1=C(O)CCC1=O` [Compound T-15], the pest or weed control at 250 g/ha in assay [1] was 10%; in the assay with Avena fatua (AVEFA) [2], 0%; in assay [3], 30%; in the assay with Lolium perenne (LOLPE) [4], 30%; in assay [5], 0%; in the assay on Avena fatua (AVEFA) [6], 0%. Moreover, the pest or weed control at 250 g/ha (in assay [7]; with Lolium perenne (LOLPE) [8]) was 0% in each case.
In the case of `CCc1ccc(-c2ccc3ccccc3c2)cc1C1=C(O)CCC1=O` [Compound T-7], the pest or weed control at 250 g/ha amounted to 10% in assay [1]; 10% in the assay on Avena fatua (AVEFA) [2]; 20% in assay [3]; 30% in the assay with Lolium perenne (LOLPE) [4]; 0% in assay [5]; 0% in the assay on Avena fatua (AVEFA) [6]. The values for the pest or weed control at 250 g/ha (in assay [7]; in the assay with Lolium perenne (LOLPE) [8]) were 20% and 10%, respectively.
In the case of `CCc1ccc(-c2ccc(Cl)c(Cl)c2)cc1C1=C(O)CCC1=O` [Compound T-5], the pest or weed control at 250 g/ha in assay [1] is 30%; in the assay with Avena fatua (AVEFA) [2], 20%; in assay [3], 70%; in the assay on Lolium perenne (LOLPE) [4], 50%; in assay [5], 20%; in the assay on Avena fatua (AVEFA) [6] it was 0%. Also, the pest or weed control at 250 g/ha (in assay [7]; with Lolium perenne (LOLPE) [8]) was 20% throughout.
As to `CCc1ccc(-c2ccc(Cl)c(F)c2)cc1C1=C(O)CCC1=O` [Compound T-9], the pest or weed control at 250 g/ha in assay [1] was found to be 30%; in the assay on Avena fatua (AVEFA) [2] it was 60%; in assay [3] it was 100%; with Lolium perenne (LOLPE) [4] it was 60%; in assay [5] it was 60%; with Avena fatua (AVEFA) [6], 50%. Besides, the pest or weed control at 250 g/ha in assay [7] stood at 90%; in the assay on Lolium perenne (LOLPE) [8] it was 80%.
As for `CCc1ccc(-c2ccc(Cl)c(F)c2Cl)cc1C1=C(O)CCC1=O` [Compound T-11], the pest or weed control at 250 g/ha was determined as 60% in assay [1]; 30% in the assay with Avena fatua (AVEFA) [2]; 90% in assay [3]; 50% in the assay on Lolium perenne (LOLPE) [4]; 20% in assay [5]; 10% in the assay on Avena fatua (AVEFA) [6]. Further, the results for the pest or weed control at 250 g/ha (in assay [7]; with Lolium perenne (LOLPE) [8]) were 50% and 30%, respectively.
Regarding `CCc1ccc(-c2ccc(Cl)cc2Cl)cc1C1=C(O)CCC1=O` [Compound T-14], the pest or weed control at 250 g/ha turned out to be 30% in assay [1]; 30% with Avena fatua (AVEFA) [2]; 70% in assay [3]; 30% with Lolium perenne (LOLPE) [4]; 10% in assay [5]; 0% with Avena fatua (AVEFA) [6]. Moreover, the pest or weed control at 250 g/ha was 50% in assay [7] and 30% in the assay with Lolium perenne (LOLPE) [8].
